# Experimental data: patent US20120129872A1, “FUSED HETEROARYL INHIBITORS OF PRO-MATRIX METALLOPROTEINASE ACTIVATION” (priority 2010, published 2012)
# Counter-ions that a name gives are not always drawn.
# Key:
# [1] = target: T1, full-length proMMP9(1-707) (SEQ ID NO:1), activation by catalytic MMP3 (Homo sapiens, UniProt P14780, R574P); assay: proMMP9/MMP3 P126 Activation Assay; assay type: biochemical
# T1 construct: made in house; host or cells: HEK293 (transient, secreted)
# Procedure: proMMP9/MMP3 P126 Activation Assay
# The reaction volume was 50 μL. […] Reactivity of residual MMP3 towards P-126 substrate was minimal under these conditions.
# [2] = target: T2, proMMP9(67-444;ΔFnII) (SEQ ID NO:5) (Homo sapiens, UniProt P14780, DEL216-390); assay: ThermoFluor binding assay with proMMP9(67-444;ΔFnII)
# T2 construct: start methionine (N); made in house; host or cells: E. coli BL21(DE3) RIL
# T2 sequence (P14780 with tags, fused parts or gaps DEL216-390): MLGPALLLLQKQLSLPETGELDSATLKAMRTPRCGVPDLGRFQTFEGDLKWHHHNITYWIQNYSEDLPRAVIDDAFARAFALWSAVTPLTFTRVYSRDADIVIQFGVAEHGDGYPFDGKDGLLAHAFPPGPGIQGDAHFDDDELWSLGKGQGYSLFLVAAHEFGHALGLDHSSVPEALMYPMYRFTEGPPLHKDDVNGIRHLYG
# Procedure: (§1) The ThermoFluor® (TF) assay is a 384-well plate-based binding assay that measures thermal stability of proteins (Biomol Screen 2001, 6, 429-40; Biochemistry 2005, 44, 5258-66). The experiments were carried out using instruments available from Johnson & Johnson Pharmaceutical Research & Development, LLC. TF dye used in all experiments was […] (1,8-ANS) (Invitrogen: A-47).
# (§2) Compounds were arranged in a pre-dispensed plate (Greiner Bio-one: 781280), wherein compounds were serially diluted in 100% DMSO across 11 columns within a series. Columns 12 and 24 were used as DMSO reference and contained no compound. For multiple compound concentration-response experiments, the compound aliquots ([…]) were robotically predispensed directly into black 384-well polypropylene PCR microplates (Abgene: TF-0384/k) using a Cartesian Hummingbird liquid handler (DigiLab, Holliston, Mass.). Following compound dispense, protein and dye solutions were added to achieve the final assay volume of 3 μL. The assay solutions were overlayed with 1 μL of silicone oil (Fluka, type DC 200: 85411) to prevent evaporation.
# (§3) Assay plates were robotically loaded onto a thermostatically controlled PCR-type thermal block and then heated from 40 to 90° C. at a ramp-rate of 1° C./min for all experiments. Fluorescence was measured by continuous illumination with UV light (Hamamatsu LC6) supplied via fiber optics and filtered through a band-pass filter (380-400 nm; >60D cutoff). Fluorescence emission of the entire 384-well plate was detected by measuring light intensity using a CCD camera (Sensys, Roper Scientific) filtered to detect 500±25 nm, resulting in simultaneous and independent readings of all 384 wells. A single image with 20-sec exposure time was collected at each temperature, and the sum of the pixel intensity in a given area of the assay plate was recorded vs temperature and fit to standard equations to yield the Tm (J Biomol Screen 2001, 6, 429-40).
# (§4) Thermodynamic parameters necessary for fitting compound binding for each proMMP were estimated by differential scanning calorimetry (DSC) and from ThermoFluor® data. The heat capacity of unfolding for each protein was estimated from the molecular weight and from ThermoFluor® dosing data.
# ThermoFluor® with proMMP9(67-444;ΔFnII (SEQ ID NO:5)
# The protein sample preparations had to include a desalting buffer exchange step via a PD-10 gravity column (GE Healthcare). The desalting buffer exchange was performed prior to diluting the protein to the final assay concentration of 3.5 μM proMMP9(67-444;ΔFnII) (SEQ ID NO:5). The concentration of proMMP9(67-444;ΔFnII) (SEQ ID NO:5) was determined spectrophotometrically based on a calculated extinction coefficient of ε280=33900 M^−1 cm^−1, a calculated molecular weight of 22.6 kDa, and calculated pI of 5.20. ThermoFluor® reference conditions were defined as follows: 80 μg/mL (3.5 μM) proMMP9(67-444;ΔFnII) (SEQ ID NO:5), 50 μM 1,8-ANS, pH 7.0 Buffer (50 mM HEPES pH 7.0, 100 mM NaCl, 0.001% Tween-20, 2.5 mM MgCl2, 300 μM CaCl2). The thermodynamic parameters for proMMP9(67-444;ΔFnII) (SEQ ID NO:5) are as follows: Tm (° C.)=63 (+/−0.1), ΔUH(Tm) (cal mol^−1)=105000(+/−5000), ΔUS(Tm) (cal mol^−1 K^−1)=450, ΔuCp (cal mol^−1 K^−1)=2000.
# [3] = target: T3, proMMP9(20-445;ΔFnII) (SEQ ID NO:6) (Homo sapiens, UniProt P14780, DEL216-390); assay: ThermoFluor binding assay with proMMP9(20-445;ΔFnII)
# T3 construct: start methionine (N); made in house; host or cells: E. coli BL21(DE3) RIL
# T3 sequence (P14780 with tags, fused parts or gaps DEL216-390): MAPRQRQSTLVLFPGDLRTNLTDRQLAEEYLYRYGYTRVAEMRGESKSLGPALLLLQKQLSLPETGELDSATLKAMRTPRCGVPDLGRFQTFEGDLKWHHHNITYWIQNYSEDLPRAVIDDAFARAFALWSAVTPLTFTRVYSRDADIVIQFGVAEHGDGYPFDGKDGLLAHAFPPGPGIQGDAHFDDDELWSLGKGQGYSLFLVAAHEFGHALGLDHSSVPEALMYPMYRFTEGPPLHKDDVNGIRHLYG
# Procedure: as §1, §2, §3, §4
# ThermoFluor® with proMMP9(20-445;ΔFnII (SEQ ID NO:6)
# The protein sample preparations included a desalting buffer exchange step via a PD-10 gravity column (GE Healthcare). The desalting buffer exchange was performed prior to diluting the protein to the final assay concentration of 2.8 μM proMMP9(20-445;ΔFnII) (SEQ ID NO:6). The concentration of proMMP9(20-445;ΔFnII) (SEQ ID NO:6) was determined spectrophotometrically based on a calculated extinction coefficient of ε280=39880 M^−1 cm^−1, a calculated molecular weight of 28.2 kDa, and calculated pI of 5.5. ThermoFluor® reference conditions were define as follows: 80 μg/mL (2.8 μM) proMMP9(20-445;ΔFnII) (SEQ ID NO:6), 50 μM 1,8-ANS, pH 7.0 Buffer (50 mM HEPES pH 7.0, 100 mM NaCl, 0.001% Tween-20, 2.5 mM MgCl2, 300 μM CaCl2). The thermodynamic parameters for proMMP9(20-445;ΔFnII) (SEQ ID NO:6) are as follows: Tm (° C.)=72 (+/−0.1), ΔUH(Tm) (cal mol^−1)=160000(+/−5000), ΔUS(Tm) (cal mol^−1 K^−1)=434, ΔUCp (cal mol^−1 K^−1)=2400.
# T1 sequence (P14780 20-707 R574P): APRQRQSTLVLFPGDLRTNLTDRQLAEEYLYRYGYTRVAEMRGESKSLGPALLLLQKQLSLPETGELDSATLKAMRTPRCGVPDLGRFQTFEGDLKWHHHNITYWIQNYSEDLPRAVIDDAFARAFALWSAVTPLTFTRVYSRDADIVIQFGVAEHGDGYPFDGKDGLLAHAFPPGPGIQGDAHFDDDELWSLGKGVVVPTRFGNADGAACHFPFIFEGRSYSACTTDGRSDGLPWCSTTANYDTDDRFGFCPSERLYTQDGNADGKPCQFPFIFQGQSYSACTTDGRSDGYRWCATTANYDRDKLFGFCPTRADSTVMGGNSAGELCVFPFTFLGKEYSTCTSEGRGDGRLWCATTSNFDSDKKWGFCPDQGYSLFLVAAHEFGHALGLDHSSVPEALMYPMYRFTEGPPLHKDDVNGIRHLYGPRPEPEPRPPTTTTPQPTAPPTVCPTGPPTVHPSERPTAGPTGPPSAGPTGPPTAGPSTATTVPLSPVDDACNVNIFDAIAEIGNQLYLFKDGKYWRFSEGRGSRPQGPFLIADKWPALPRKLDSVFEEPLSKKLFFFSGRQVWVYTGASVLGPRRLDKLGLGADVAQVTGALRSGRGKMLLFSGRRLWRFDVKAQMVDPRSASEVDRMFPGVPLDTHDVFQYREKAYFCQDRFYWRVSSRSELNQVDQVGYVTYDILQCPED
IC50 [1],Kd [2],Kd [3],Compound
2300 nM,7500 nM,1700 nM,"COc1cc(C)c(C(N)=O)cc1Nc1nc(-c2ccc3c(c2)ncn3C)cs1 [Example 1, 4-Methoxy-2-methyl-5-[4-(1-methyl-1H-benzoimidazol-5-yl)-thiazol-2-ylamino]-benzamide]"
~3000 nM,6000 nM,690 nM,"CC(C)Cc1ccc(C(N)=O)cc1Nc1nc(-c2ccc3c(c2)ncn3C)cs1 [Example 2, 4-Isobutyl-3-[4-(1-methyl-1H-benzoimidazol-5-yl)-thiazol-2-ylamino]-benzamide•TFA]"
150 nM,2000 nM,260 nM,"CC(C)Oc1ccc(S(N)(=O)=O)cc1Nc1nc(-c2ccc3c(c2)ncn3C)cs1 [Example 9, 4-Isopropoxy-3-[4-(1-methyl-1H-benzoimidazol-5-yl)-thiazol-2-ylamino]-benzenesulfonamide•HCl]"
850 nM,990 nM,320 nM,"COc1ccc(C(N)=O)cc1Nc1nc(-c2ccc3c(c2)ncn3C)cs1 [Example 10, 4-Methoxy-3-[4-(1-methyl-1H-benzoimidazol-5-yl)-thiazol-2-ylamino]-benzamide]"
860 nM,11000 nM,4800 nM,"COc1ccc(S(N)(=O)=O)cc1Nc1nc(-c2ccc3c(c2)ncn3C)cs1 [Example 11, 4-Methoxy-3-[4-(1-methyl-1H-benzoimidazol-5-yl)-thiazol-2-ylamino]-benzenesulfonamide]"
860 nM,5300 nM,750 nM,"Cn1cnc2cc(-c3csc(Nc4cc(S(N)(=O)=O)ccc4OC(F)(F)F)n3)ccc21 [Example 12, 3-[4-(1-Methyl-1H-benzoimidazol-5-yl)-thiazol-2-ylamino]-4-trifluoromethoxy-benzenesulfonamide]"
350 nM,670 nM,67 nM,"CC(C)Oc1ccc(C(N)=O)cc1Nc1nc(-c2ccc3c(cnn3C)c2)cs1 [Example 14, 4-Isopropoxy-3-[4-(1-methyl-1H-indazol-5-yl)-thiazol-2-ylamino]-benzamide•TFA]"
550 nM,280 nM,110 nM,"CC(C)Oc1ccc(S(N)(=O)=O)cc1Nc1nc(-c2ccc3c(cnn3C)c2)cs1 [Example 15, 4-Isopropoxy-3-[4-(1-methyl-1H-indazol-5-yl)-thiazol-2-ylamino]-benzenesulfonamide•TFA]"
~2000 nM,6700 nM,270 nM,"Cn1ncc2cc(-c3csc(Nc4cc(C(N)=O)ccc4OC(F)(F)F)n3)ccc21 [Example 16, 3-[4-(1-Methyl-1H-indazol-5-yl)-thiazol-2-ylamino]-4-trifluoromethoxy-benzamide•TFA]"
82 nM,–,87 nM,CC(C)Oc1ccc(S(N)(=O)=O)cc1Nc1nc(-c2ccc3c(c2)nc(CN2CCN(C)CC2)n3C)cs1 [Example 30]
73 nM,–,52 nM,"CC(C)Oc1ccc(S(N)(=O)=O)cc1Nc1nc(-c2ccc3c(c2)nc(CN(C)C)n3C)cs1 [Example 31, 3-((4-(2-((Dimethylamino)methyl)-1-methyl-1H-benzo[d]imidazol-5-yl)thiazol-2-yl)amino)-4-isopropoxybenzenesulfonamide•TFA]"
200 nM,–,52 nM,"CC(C)Oc1ccc(S(N)(=O)=O)cc1Nc1nc(-c2ccc3c(c2)nc(CN(C)CCN(C)C)n3C)cs1 [Example 32, 3-((4-(2-(((2-(Dimethylamino)ethyl)(methyl)amino)methyl)-1-methyl-1H-benzo[d]imidazol-5-yl)thiazol-2-yl)amino)-4-isopropoxybenzenesulfonamide•TFA]"
170 nM,–,82 nM,CC(C)Oc1ccc(S(N)(=O)=O)cc1Nc1nc(-c2ccc3[nH]c(=O)[nH]c3c2)cs1 [Example 33]
150 nM,–,44 nM,"CC(C)Oc1ccc(S(N)(=O)=O)cc1Nc1nc(-c2ccc3[nH]c(N)nc3c2)cs1 [Example 34, 3-((4-(2-Amino-1H-benzo[d]imidazol-5-yl)thiazol-2-yl)amino)-4-isopropoxybenzenesulfonamide•TFA]"
